Like-named read-outs stand apart in the source and are kept apart here.
Assays:
[1] = target: V2 (Homo sapiens (Human), UniProt P30518); experiment: Activity assay in the agonistic mode, V2; type: biochemical
[2] = target: V1a (Homo sapiens (Human), UniProt P37288); experiment: Activity assay in the agonistic mode, V1a; type: biochemical
[3] = target: OT receptors (Homo sapiens (Human), UniProt P30559); experiment: Activity assay in the agonistic mode, OT receptors; type: biochemical
[4] = In vitro human liver microsomal (HLM) stability assay; settings: for Half-life: human liver microsomes, first order kinetics; for % Compound Remaining (Mean): 0.1 μM compound, human liver microsomes 0.1007 mg/ml
Description: (§1) Liver microsomal stability assays are conducted with human liver microsomes at a final liver microsomal protein concentration of 0.1007 mg per ml. Test compounds are prepared as solutions in 0.01% DMSO, 0.25% acetonitril and 0.25% methanol. The test compound is added to the reaction mixture at a final concentration of 0.1 μM and pre-incubated with pooled liver microsomes in phosphate buffer (pH 7.4) for 10 min on plate shaker in a 37° C. incubator. The reaction is initiated by adding a NADPH-generating system and incubated for 0, 15, 30, 45, and 60 min. The reaction is stopped by transferring the incubation mixture to Stop Buffer solvent (acetonitrile/methanol). Samples are then mixed and centrifuged. The supernatant samples are loaded onto the LC/MS/MS for analysis. Samples are analyzed by LC/MS/MS using multiple reaction monitoring (MRM). The UPLC system consists of a binary LC pump with autosampler, a C-18 column, and a gradient.
(§2) Four reference compounds are tested in each assay (Propranolol, imipramine, verapamil and terfenadine).
(§3) For data analysis, peak areas corresponding to the test compound are recorded. The compound remaining is calculated by comparing the peak area at each time point to time zero. The half-life is calculated from the slope of the initial linear range of the logarithmic curve of compound remaining (%) vs. time, assuming first order kinetics.

[5] = in vitro; settings: human, microsomes, pH 7.4
Description: as §1, §2, §3

[6] = human, microsomes, 0.1 μM, pH 7.4
Description: as §1, §2, §3

[7] = 10 mg/kg p.o.; cited from earlier work

V1a, sequence (P37288 whole entry): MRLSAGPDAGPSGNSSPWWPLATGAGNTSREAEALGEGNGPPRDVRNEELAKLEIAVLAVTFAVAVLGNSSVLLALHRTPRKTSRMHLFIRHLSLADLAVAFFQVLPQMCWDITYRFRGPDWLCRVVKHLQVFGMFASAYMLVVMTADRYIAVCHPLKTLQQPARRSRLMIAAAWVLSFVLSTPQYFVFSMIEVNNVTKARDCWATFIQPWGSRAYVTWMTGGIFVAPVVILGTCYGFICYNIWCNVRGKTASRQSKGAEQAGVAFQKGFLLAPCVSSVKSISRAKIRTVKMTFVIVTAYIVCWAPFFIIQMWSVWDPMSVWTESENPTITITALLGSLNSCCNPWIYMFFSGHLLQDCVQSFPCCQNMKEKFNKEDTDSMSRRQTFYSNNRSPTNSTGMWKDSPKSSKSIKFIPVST
OT receptors, sequence (P30559 whole entry): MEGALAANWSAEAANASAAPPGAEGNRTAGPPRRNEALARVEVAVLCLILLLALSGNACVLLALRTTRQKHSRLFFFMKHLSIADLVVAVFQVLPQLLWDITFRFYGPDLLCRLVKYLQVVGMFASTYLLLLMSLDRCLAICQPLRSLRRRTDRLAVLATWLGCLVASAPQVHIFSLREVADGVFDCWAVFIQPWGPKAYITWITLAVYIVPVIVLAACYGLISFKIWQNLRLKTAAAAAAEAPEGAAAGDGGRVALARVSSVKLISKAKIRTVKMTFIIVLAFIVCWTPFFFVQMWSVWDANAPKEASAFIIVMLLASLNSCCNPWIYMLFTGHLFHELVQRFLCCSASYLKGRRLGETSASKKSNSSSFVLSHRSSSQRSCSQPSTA
V2, sequence (P30518 whole entry): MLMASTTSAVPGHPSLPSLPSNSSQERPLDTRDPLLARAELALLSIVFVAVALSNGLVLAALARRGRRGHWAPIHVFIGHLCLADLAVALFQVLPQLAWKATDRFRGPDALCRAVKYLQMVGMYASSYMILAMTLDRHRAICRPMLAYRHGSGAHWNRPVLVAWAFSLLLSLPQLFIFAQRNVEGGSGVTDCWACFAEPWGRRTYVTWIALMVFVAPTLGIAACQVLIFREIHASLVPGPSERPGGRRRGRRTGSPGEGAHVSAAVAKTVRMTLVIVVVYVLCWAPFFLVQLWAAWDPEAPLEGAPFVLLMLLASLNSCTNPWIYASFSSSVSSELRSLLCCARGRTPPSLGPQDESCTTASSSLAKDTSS

activity in the agonistic mode in comparison to undeuterated nelivaptan [1] | activity in the agonistic mode in comparison to undeuterated nelivaptan [2] | activity in the agonistic mode in comparison to undeuterated nelivaptan [3] | half-life at 0.1 μM [5] | % Compound Remaining (Mean) ([6]; 0 h) | % Compound Remaining (Mean) ([6]; 0.25 h) | % Compound Remaining (Mean) ([6]; 0.5 h) | % Compound Remaining (Mean) ([6]; 0.75 h) | % Compound Remaining (Mean) ([6]; 1 h) | Structure (SMILES) | Half-life [4] | % Compound Remaining (Mean) ([4]; incubation 0 min) | % Compound Remaining (Mean) ([4]; incubation 15 min) | % Compound Remaining (Mean) ([4]; incubation 30 min) | % Compound Remaining (Mean) ([4]; incubation 45 min) | % Compound Remaining (Mean) ([4]; incubation 60 min) | duration of action [7]
no significant difference | no significant difference | no significant difference | 4.1 min | 100.0% | 7.7% | 0.4% | 0.1% | 0.02% | [2H]C([2H])([2H])Oc1ccccc1[C@@]1(N2C[C@H](O)C[C@H]2C(=O)N(C)C)C(=O)N(S(=O)(=O)c2ccc(OC)cc2OC)c2ccc(Cl)cc21 [Example 2, (2S,4R)1-[(3R)-5-chloro-1-[(2,4-dimethoxyphenyl)sulfonyl]-2,3-dihydro-3-(2-methoxy-d3-phenyl)-2-oxo-1H-indol-3-yl]-4-hydroxy-N,N-dimethyl-2-pyrrolidinecarboxamide] |  |  |  |  |  |  | 
no significant difference | no significant difference | no significant difference |  |  |  |  |  |  | [2H]C([2H])([2H])Oc1ccc(S(=O)(=O)N2C(=O)[C@@](c3ccccc3OC([2H])([2H])[2H])(N3C[C@H](O)C[C@H]3C(=O)N(C([2H])([2H])[2H])C([2H])([2H])[2H])c3cc(Cl)ccc32)c(OC([2H])([2H])[2H])c1 [Example 3, (2S,4R)1-[(3R)-5-chloro-1-[(2,4-dimeth-d6-oxyphenyl)sulfonyl]-2,3-dihydro-3-(2-methoxy-d3-phenyl)-2-oxo-1H-indol-3-yl]-4-hydroxy-N,N-dimethyl-d6-2-pyrrolidinecarboxamide] | 6.2 min | 100% | 5.40% | 0.39% | 0.15% | 0.13% | 
 |  |  | 3.2 min | 100.0% | 3.8% | 0.4% | 0.1% | 0.03% | COc1ccc(S(=O)(=O)N2C(=O)[C@@](c3ccccc3OC)(N3C[C@H](O)C[C@H]3C(=O)N(C)C)c3cc(Cl)ccc32)c(OC)c1 [Nelivaptan, (2S,4R)-1-[(3R)-5-chloro-1-(2,4-dimethoxyphenyl)sulfonyl-3-(2-methoxyphenyl)-2-oxoindol-3-yl]-4-hydroxy-N,N-dimethylpyrrolidine-2-carboxamide, reference compound] |  |  |  |  |  |  | > 4 h

Structure (SMILES) | activity in the agonistic mode in comparison to undeuterated nelivaptan [1] | activity in the agonistic mode in comparison to undeuterated nelivaptan [2] | activity in the agonistic mode in comparison to undeuterated nelivaptan [3] | half-life at 0.1 μM [5] | % Compound Remaining (Mean) ([6]; 0 h) | % Compound Remaining (Mean) ([6]; 0.25 h) | % Compound Remaining (Mean) ([6]; 0.5 h) | % Compound Remaining (Mean) ([6]; 0.75 h) | % Compound Remaining (Mean) ([6]; 1 h) | Half-life [4] | % Compound Remaining (Mean) ([4]; incubation 0 min) | % Compound Remaining (Mean) ([4]; incubation 15 min) | % Compound Remaining (Mean) ([4]; incubation 30 min) | % Compound Remaining (Mean) ([4]; incubation 45 min) | % Compound Remaining (Mean) ([4]; incubation 60 min) | duration of action [7]
[2H]C([2H])([2H])N(C(=O)[C@@H]1C[C@@H](O)CN1[C@]1(c2ccccc2OC)C(=O)N(S(=O)(=O)c2ccc(OC)cc2OC)c2ccc(Cl)cc21)C([2H])([2H])[2H] [Example 1, (2S,4R)1-[(3R)-5-chloro-1-[(2,4-dimethoxyphenyl)sulfonyl]-2,3-dihydro-3-(2-methoxyphenyl)-2-oxo-1H-indol-3-yl]-4-hydroxy-N,N-dimethyl-d6-2-pyrrolidinecarboxamide] | no significant difference | no significant difference | no significant difference |  |  |  |  |  |  | 4.7 min | 100.0% | 14.3% | 1.2% | 0.1% | 0.03% | 
